Where two headings read alike, the source gives them in different places.
Key:
[1] = biological target: Tau enriched paired helical filaments (PHF) from human Alzheimer's disease (AD) brains (Homo sapiens, UniProt P10636); assay: Assay 3: backscattering interferometry, dissociation constants (Kd); assay type: binding
Excerpt: Assay 3 (Backscattering Interferometry):
Determination of Dissociation Constants (Kd) of Compounds of this Invention
Enrichment of Paired Helical Filaments (PHF's) from Human Alzheimer's Disease Brains
For backscattering interferometry, Tau enriched paired helical filaments (PHF) from human Alzheimer's disease (AD) brains were used as a target. Due to the limited availability of tissues, to determine dissociation constants (Kd) of compounds of this invention to the target, two different batches of enriched PHF were used. These batches are identified as batch 6 and 7 and were prepared as follows.
PHF batch number 6 was prepared starting from 25 g frontal cortical tissue from post-mortem brains of 25 Alzheimer's disease (AD) patients which were obtained from the London Tissue Bank. The mean age at death for the AD patients was 76 years (48% females). Brain samples were characterized for Braak disease stage (Braak and Braak, 1991), with most donors displaying a stage VI. The postmortem interval between death and brain dissection was between 6 and 65 h. Human brain homogenates were prepared by SB Drug Discovery (Glasgow, Scotland, UK) from the post-mortem cortical tissue of the 25 patients). Each tissue (1 g) was homogenized with a Dounce glass homogenizer in 1.5 mL 100 mM 2-(N-morpholino) ethane-sulfonic acid (MES) pH 6.8, 0.75 M NaCl, 1 mM EGTA, 0.5 mM MgSO4, 2 mM DTT containing protease inhibitors (Complete; Roche 11697498001). For each sample, two aliquots containing 0.5 g brain homogenates in 0.75 mL were shipped to AC Immune SA on dry ice and stored at −80° C. For the enrichment of PHF, 1 aliquot per donor corresponding to total 12.5 g of brain tissue were thawed on ice and then incubated at 4° C. for 20 min to depolymerize any residual microtubules. All samples were then pooled and transferred to three polycarbonate centrifuge bottles (16×76 mm; Beckman 355603).
PHF batch number 7 was prepared starting from 32 g of parietal cortex tissue from post-mortem brain of one Alzheimer's disease (AD) patient was obtained from an external provider (Tissue Solution). The patient was a person who died for end stage AD. The brain sample was collected 5 h post-mortem and characterized for Braak disease stage (Braak and Braak, 1991) as stage VI. The method used for the PHF enrichment was modified from published procedures (Jicha et al., 1997; Rostagno and Ghiso, 2009). Around 16 g of the AD human brain was thawed on ice and homogenized with 50 ml of homogenization buffer [0.75 M NaCl in RAB buffer (100 mM 2-(N-morpholino) ethanesulfonic acid (MES), 1 mM EGTA, 0.5 mM MgSO4, 2 mM DTT, pH 6.8) supplemented with protease inhibitors (Complete; Roche 11697498001)] in a glass Dounce homogenizer. The homogenate was then incubated at 4° C. for 20 min to let depolymerize any residual microtubules, before being transferred into polycarbonate centrifuge bottles (16×76 mm; Beckman 355603). For both purifications, brain homogenates were then centrifuged at 11,000 g (12,700 RPM) in an ultracentrifuge (Beckman, XL100K) for 20 min at 4° C. using the pre-cooled 70.1 rotor (Beckman, 342184). Pellets were kept on ice. Supernatants were pooled into polycarbonate bottles and centrifuged again at 100,000 g (38,000 RPM) for 1 h at 4° C. in the 70.1 Ti rotor to isolate PHF-rich pellets, whereas soluble Tau remained in the supernatants. The pellets from the first and second centrifugations were resuspended in 120 mL of extraction buffer [10 mM Tris-HCl pH 7.4, 10% sucrose, 0.85 M NaCl, 1% protease inhibitor (Calbiochem 539131), 1 mM EGTA, 1% phosphatase inhibitor (Sigma P5726 and P0044)]. The solution was then transferred into polycarbonate centrifuge bottles (16×76 mm; Beckman 355603) and centrifuged at 15,000 g (14,800 RPM) in an ultracentrifuge (Beckman, XL100K) for 20 min at 4° C. using the 70.1 Ti rotor. […]

[2] = test system: tau tangles/Aβ plaques on AD brain sections; assay: Assay 1: direct staining of human Alzheimer's disease brain sections (fluorescence); assay type: binding; design: key to Direct staining of tau tangles/Aβ plaques on AD brain sections at 100 μM / Direct staining of tau tangles on AD brain sections at 100 μM / Direct staining of Aβ plaques on AD brain sections at 100 μM / Direct staining of tau tangles on AD brain sections (footnote a: at 250 μM): − (No); +++ (strong); ++ (good); + (weak); conditions: for Direct staining of tau tangles on AD brain sections at 100 μM / Direct staining of tau tangles/Aβ plaques on AD brain sections at 100 μM: 100 μM compound; for Direct staining of tau tangles/Aβ plaques on AD brain sections at 100 μM: human AD brain sections, fluorescence, cell does not say tangles or plaques
Summary of the method: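 Compounds (100 μM, 50% aqueous ethanol, 20 min, RT, dark) applied directly to fixed […] frozen amygdala sections of Braak stage V-VI Alzheimer's brains. After washing and 0.1% Sudan Black treatment against autofluorescence, sections were imaged microscopically for fluorescent staining.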

[3] = test system: tau tangles on AD brain section; assay: Assay 1: displacement of RefA on human AD brain sections (fluorescence); assay type: binding; conditions: for Selectivity (tau/Abeta): ratio of competition on tau tangles to competition on Aβ plaques
Experimental: Direct Binding of Compounds of this Invention to Human Alzheimer's Disease Brain Sections and/or Displacement of RefA and Compound B
Frozen sections with a thickness of […] from the amygdala of donors diagnosed with Braak stage V-VI Alzheimer's Disease (Braak, H.; Braak, E. Acta Neuropathol., 1991, 82, 239-259), were purchased from a commercial provider (Tissue Solutions) and kept at −80° C. until use.
Displacement of RefA and Compound B
Brain sections were mainly treated as described above. Test compounds were, however, incubated on the section at 250 μM in 50% ethanol for 20 min at room temperature, and then directly incubated with the fluorescent reference compounds RefA and Compound B, each at 1 μM in 50% ethanol for 20 min at room temperature. RefA and Compound B stainings were visualized using the 470 nm and 365 nm excitation filters, respectively. Images were acquired, and tangles and plaques quantified using the NIS-Element software. Only those compounds not directly staining tangles or plaques at the same wavelengths as RefA and Compound B were tested in the displacement assay.
Structure of RefA (Tago et al., J. Label. Compd. Radiopharm. 2013, DOI: 10.1002/jlcr.3133)

[4] = test system: Aβ plaques on AD brain section; assay: Assay 1: displacement of Compound B on human AD brain sections (fluorescence); assay type: binding
Experimental: Direct Binding of Compounds of this Invention to Human Alzheimer's Disease Brain Sections and/or Displacement of RefA and Compound B Frozen sections with a thickness of […] from the amygdala of donors diagnosed with Braak stage V-VI Alzheimer's Disease (Braak, H.; Braak, E. Acta Neuropathol., 1991, 82, 239-259), were purchased from a commercial provider (Tissue Solutions) and kept at -80° C. until use. Displacement of RefA and Compound B Brain sections were mainly treated as described above. Test compounds were, however, incubated on the section at 250 μM in 50% ethanol for 20 min at room temperature, and then directly incubated with the fluorescent reference compounds RefA and Compound B, each at 1 μM in 50% ethanol for 20 min at room temperature. RefA and Compound B stainings were visualized using the 470 nm and 365 nm excitation filters, respectively. Images were acquired, and tangles and plaques quantified using the NIS-Element software. Only those compounds not directly staining tangles or plaques at the same wavelengths as RefA and Compound B were tested in the displacement assay. Structure of Compound B (prepared by a similar procedure described for […] in WO2010/011964): […]

AD brain-enriched PHF = AD brain-enriched PHF (Homo sapiens, UniProt P10636); assay: Assay 2 (filter trap): [3H]RefA radio-binding competition assay and Ki on PHF; conditions: [^3H]RefA 10 nM; for Ki: PHF diluted 1/80, compound 0.12 nM to 50 μM
Experimental: Displacement of [^3H]RefA by Compounds of this Invention
50 g of frontal lobe tissue from post-mortem brain of an Alzheimer's disease (AD) patient were obtained from the London Tissue Bank. The patient was a […] and died […]. The brain sample was collected 5 hours post-mortem and characterized for Braak disease stage (Braak, H.; Braak, E. Acta Neuropathol., 1991, 82, 239-259) as stage VI. For the enrichment of PHF's, around 15 g of the AD human brain was thawed on ice and homogenized with 50 ml of homogenization buffer [0.75 M NaCl in RAB buffer (100 mM 2-(N-morpholino) ethanesulfonic acid (MES), 1 mM EGTA, 0.5 mM MgSO4, 2 mM DTT, pH 6.8) supplemented with protease inhibitors (Complete; Roche 11697498001) in a glass Dounce homogenizer. The homogenate was then incubated at 4° C. for 20 min to let any residual microtubules depolymerize, before the homogenate was transferred into polycarbonate centrifuge bottles (16×76 mm; Beckman 355603) and centrifuged at 11,000 g (12,700 RPM) in an ultracentrifuge (Beckman, XL100K) for 20 min at 4° C. using the pre-cooled 70.1 rotor (Beckman, 342184). Pellets were kept on ice. Supernatants were pooled into polycarbonate bottles and centrifuged again at 100,000 g (38,000 RPM) for 1 h at 4° C. in the 70.1 Ti rotor to isolate PHF-rich pellets, whereas soluble tau remained in the supernatants. The pellets from the first and second centrifugations were re-suspended in 120 mL of extraction buffer [10 mM Tris-HCl pH 7.4, 10% sucrose, 0.85 M NaCl, 1% protease inhibitor (Calbiochem 539131), 1 mM EGTA, 1% phosphatase inhibitor (Sigma P5726 and P0044)]. The solution was then transferred into polycarbonate centrifuge bottles (16×76 mm; Beckman 355603) and centrifuged at 15,000 g (14,800 RPM) in an ultracentrifuge (Beckman, XL100K) for 20 min at 4° C. using the 70.1 Ti rotor. In the presence of 10% sucrose and at low speed centrifugation, most PHF remained in the supernatant whereas intact or fragmented NFTs and larger PHF aggregates were pelleted. The pellets were discarded. 20% Sarkosyl (Sigma L7414-10ML) was added to the supernatants to a final concentration of 1% and stirred at room temperature for 1 h. This solution was then centrifuged into polycarbonate bottles at 100,000 g (38,000 RPM) for 1 h at 4° C. in the 70.1 Ti rotor, and the pellets containing PHF-rich material were re-suspended in a total final volume of 1.5 mL of PBS, aliquoted and stored at −80° C.
[^3H]RefA Radio-Binding Competition Assay
AD brain-enriched PHF diluted 1/80 were incubated in the presence of [^3H]RefA at 10 nM and the example compounds of this invention at 2.5 μM (250× excess), for 45 minutes at 37° C. Samples were then analyzed by on GF/B filter plates as described above (in the section “[^3H]RefA radio-binding assay and determination of the dissociation constant (Kd)). Non-specific signal was determined again with an excess of un-labeled RefA and specific binding calculated by subtracting the non-specific signal from the total signal. Competition was calculated as percent, where 0% was defined as the specific binding in the presence of vehicle (2.8% DMSO in PBS) and 100% as the values obtained in the presence of excess cold RefA. Similar assays were performed to determine the competition of the cold compounds on [^3H]RefA on in vitro aggregated recombinant human tau or Abeta1-42 For both recombinant proteins, 20 μg/mL of aggregates were incubated with 10 nM of [^3H]RefA for recombinant human tau or 80 nM of [^3H]RefA for recombinant human Abeta1-42.
Determination of the Binding Affinity (Ki)
Samples were then analyzed on GF/B filter plates as described above and Ki values calculated using Prism V5 (GraphPad).

[5] = PHF batch 6 (pooled frontal cortex, 25 AD patients), read-out: [Kd] on PHF batch 6

Sequence of Tau enriched paired helical filaments (PHF) from human Alzheimer's disease (AD) brains (P10636 623-708 limits assumed): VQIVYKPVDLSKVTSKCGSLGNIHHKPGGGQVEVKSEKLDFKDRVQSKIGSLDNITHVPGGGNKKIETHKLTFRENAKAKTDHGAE
Sequence of AD brain-enriched PHF (P10636 623-708 limits assumed): as above

Compound	Kd [1, 5]	Competition on AD brain section tau tangles (1 μM RefA vs. 250 μM compound) [3]	Selectivity (tau/Abeta) [3]	Competition on AD brain section Aβ plaques (1 μM Compound B vs 250 μM compound) [4]	Ki (AD brain-enriched PHF)	Direct staining of tau tangles/Aβ plaques on AD brain sections at 100 μM [2]	other results
Cn1c2ccncc2c2ccc(Nc3cccc(OC(F)F)c3)nc21 [Example 4]		91%	~5.4 fold	17%	3.3 nM		Direct staining of tau tangles on AD brain sections (footnote a: at 250 μM) ([2]; 250 μM compound, tangles): + (tangles)^a
Cn1c2ccncc2c2ccc(Nc3cccc(N4CCOCC4)c3F)nc21 [Example 12]		98%	>98 fold	0%	165 nM	−	
Cn1c2ccncc2c2ccc(Nc3cccc(N4CCOCC4)c3)nc21 [Example 1]		84%	~2.6 fold	32%	78 nM	−	
Cn1c2ccncc2c2ccc(Nc3ccc(F)cc3N3CCOCC3)nc21 [Example 5]		0%		12%	305 nM	−	

More lines, main results first:

Kd [1, 5]	Competition on AD brain section tau tangles (1 μM RefA vs. 250 μM compound) [3]	Selectivity (tau/Abeta) [3]	Competition on AD brain section Aβ plaques (1 μM Compound B vs 250 μM compound) [4]	Ki (AD brain-enriched PHF)	Compound	Direct staining of tau tangles/Aβ plaques on AD brain sections at 100 μM [2]	other results
38 ± 6 nM					Cn1c2ccncc2c2ccc(Nc3ccnc(F)c3)nc21 [Example 23]		Kd ([1]; PHF batch 7 (parietal cortex, one AD patient), read-out: [Kd] on PHF batch 7): 11 ± 2 nM
20 ± 5 nM					Cn1c2ccncc2c2ccc(N3CC4(CC(OCCOCCOCCF)C4)C3)nc21 [Example 153]		Direct staining of tau tangles on AD brain sections at 100 μM ([2]; tangles): ++ (tangles)
16 ± 3 nM					CN1CCc2c(c3ccc(Nc4cccc(OCCF)c4)nc3n2C)C1=O [Example 189]		Direct staining of tau tangles on AD brain sections at 100 μM ([2]; tangles): ++ (tangles)
20 ± 3 nM					Cn1c2ccncc2c2ccc(Nc3cc(OCCF)ccn3)nc21 [Example 63]		
	6%		0%		CN1CCc2c(c3ccc(Nc4ccc(F)cc4N4CCOCC4)nc3n2C)C1=O [Example 175]	−	inhibition at 2.5 µM (AD brain-enriched PHF; compound 2.5 μM, no Ki determined): < 50%
46 ± 9 nM					Cn1c2c(c3ccc(Nc4cccc(OCCF)c4)nc31)C(=O)NCC2 [drawing 1063]		

From patent US10662193B2, “Carbazole and carboline compounds for use in the diagnosis, treatment, alleviation or prevention of disorders associated with amyloid or amyloid-like proteins” (AC IMMUNE SA, priority 2014, dated 2020)
